Test results from the NIST ThermoML archive (doi:10.1021/acs.jced.6b00128).
Numbers after ± are expanded uncertainties.

Conditions: Liquid, Falling or rolling sphere viscometry

CCCCC(CC)COC(=O)c1ccc(C(=O)OCC(CC)CCCC)c(C(=O)OCC(CC)CCCC)c1 (stereo not drawn) [tris(2-ethylhexyl) trimellitate]
Conditions | viscosity [mPa·s]
315.1 K, 8710 kPa | 92.64 ± 3.6
315.1 K, 23090 kPa | 125 ± 5.5
315.1 K, 36550 kPa | 163.5 ± 8.2
315.1 K, 69620 kPa | 301.3 ± 20
315.1 K, 71420 kPa | 310.8 ± 20
315.1 K, 104200 kPa | 540.6 ± 44
315.1 K, 138800 kPa | 934 ± 93
347.1 K, 9180 kPa | 22.72 ± 0.97
347.1 K, 22490 kPa | 28.88 ± 1.3
347.1 K, 36420 kPa | 36.54 ± 1.7
347.1 K, 70160 kPa | 62.43 ± 3
347.1 K, 70370 kPa | 62.32 ± 3
347.1 K, 104100 kPa | 101.1 ± 5.5
347.1 K, 138500 kPa | 159.1 ± 10
347.1 K, 173500 kPa | 244.9 ± 14
347.1 K, 219900 kPa | 420.8 ± 31
387.5 K, 11780 kPa | 7.262 ± 0.27
387.5 K, 22080 kPa | 8.542 ± 0.32
387.5 K, 36110 kPa | 10.48 ± 0.4
387.5 K, 70650 kPa | 16.6 ± 0.66
387.5 K, 72750 kPa | 17.21 ± 0.67
387.5 K, 104700 kPa | 25.32 ± 1
387.5 K, 140100 kPa | 37.04 ± 1.6
387.5 K, 173400 kPa | 51.68 ± 2.3
387.5 K, 215400 kPa | 77.27 ± 3.1
428.6 K, 9400 kPa | 3.143 ± 0.11
428.6 K, 21670 kPa | 3.632 ± 0.12
428.6 K, 36940 kPa | 4.46 ± 0.15
428.6 K, 70470 kPa | 6.643 ± 0.23
428.6 K, 105400 kPa | 9.7 ± 0.33
428.6 K, 139500 kPa | 13.2 ± 0.46
428.6 K, 172300 kPa | 17.63 ± 0.62
428.6 K, 203200 kPa | 22.51 ± 0.72
428.6 K, 237600 kPa | 29.74 ± 0.96
477.8 K, 11620 kPa | 1.649 ± 0.053
477.8 K, 23680 kPa | 1.916 ± 0.062
477.8 K, 37690 kPa | 2.232 ± 0.072
477.8 K, 37760 kPa | 2.235 ± 0.072
477.8 K, 70980 kPa | 3.227 ± 0.11
477.8 K, 105500 kPa | 4.336 ± 0.14
477.8 K, 106000 kPa | 4.336 ± 0.14
477.8 K, 139300 kPa | 5.743 ± 0.19
477.8 K, 174200 kPa | 7.352 ± 0.24
477.8 K, 196800 kPa | 8.536 ± 0.29
477.8 K, 219300 kPa | 10.02 ± 0.32
477.8 K, 240800 kPa | 11.62 ± 0.39
527.4 K, 10410 kPa | 1.015 ± 0.033
527.4 K, 23110 kPa | 1.161 ± 0.037
527.4 K, 36430 kPa | 1.333 ± 0.043
527.4 K, 69910 kPa | 1.79 ± 0.058
527.4 K, 105200 kPa | 2.466 ± 0.08
527.4 K, 105700 kPa | 2.469 ± 0.08
527.4 K, 139000 kPa | 3.097 ± 0.1
527.4 K, 172900 kPa | 3.835 ± 0.13
527.4 K, 200700 kPa | 4.578 ± 0.15
527.4 K, 201600 kPa | 4.601 ± 0.15
527.4 K, 223700 kPa | 5.224 ± 0.17
527.4 K, 241600 kPa | 5.761 ± 0.19
